Source: patent publication US6335350B1, “Acetamide and substituted acetamide-containing thiourea inhibitors of herpes viruses” (American Home Products Corporation, priority 1998, dated 2002)
Values after ≈ are worked out from the molar mass of the structure shown.

Legend:
HCMV wild-type = assay: HCMV yield assay; type: cell-based, human cytomegalovirus; details: human foreskin fibroblasts; for IC50: Human betaherpesvirus 5, Fibroblast, read-out: IC50 Ug/ml HCMV
Method: Yield assay. Monolayer cultures of human foreskin fibroblasts are infected with HCMV wild-type, typically at a multiplicity of infection equal to 0.2, in the presence of inhibitor compound (varying concentrations). At three days post-infection, total virus produced in these cultures (i.e. virus yield) is assessed by harvesting and titering the virus in 12-well plates of cultured human foreskin fibroblasts (done in the absence of inhibitor). Plaques are quantified at 2 weeks post-infection. An inhibitor of HCMV is identified by the reduction in titer of virus yield in the presence, compared to the titer in the absence of compound. In this assay, the relative anti-HCMV activity of an inhibitor is typically determined by calculating the IC50 or IC90 value, that is, the amount of compound required to reduce the virus yield by 50% or 90%, respectively. Table I describes IC50 data for compounds tested against HCMV.

HSV-1 = assay: HSV Antiviral (ELISA) Assay; type: cell-based, herpes simplex virus type 1; details: Vero cells, HSV-1; for IC50: Human alphaherpesvirus 1, Vero, read-out: IC50 Ug/ml HSV
Method: Vero cells (ATCC #CCL-81) are plated on 96-well tissue culture plates at 3.5×10^4 cells per 100 μl tissue culture DMEM (Dulbecco's modified Eagle media) supplemented with 2% fetal bovine serum (FBS) in each well. After overnight incubation @ 37° C. (in 5% CO2) and 30 minutes prior to infection with HSV-1 (multiplicity of infection equal to 0.006), cells are either untreated, or treated with test compound (multiple concentrations) or reference standard drug control. After approximately 24 hours post-infection incubation @ 37° C. (in 5% CO2), cells are fixed for ELISA assay. The primary antibody is murine anti-HSV glycoprotein D monoclonal primary antibody and the secondary antibody is goat anti-mouse IgG linked to β-galactosidase. Thus the extent of viral replication is determined by assessing β-galactosidase activity by quantifying the generation of the 4-methyl umbelliferone fluorescent cleavage product after addition of the methyl umbelliferyl-β-D-galactoside (Sigma #M1633) substrate on a microfluorimeter (365 nm for excitation and 450 nm for emission). Antiviral activity (IC50) of the test compound is determined by comparing the flourescence obtained in absence of compound to that obtained in the presence of compound.

VZV strain Ellen = assay: VZV Antiviral (ELISA) Assay; type: cell-based, varicella-zoster virus; details: human foreskin fibroblast cells; for IC50 / inhibition at 10 µg/mL: Human alphaherpesvirus 3, Fibroblast; for IC50: read-out: IC50 Ug/ml VZV; for inhibition at 10 µg/mL: read-out: % inhibition 10 ug/ml VZV, 10 ug/ml
Method: For the generation of stock VZV to be used in the assay, VZV strain Ellen (ATCC #VR-1367) is used to infect human foreskin fibroblast (HFF) cells at low multiplicity (less than 0.1) and incubated overnight at 37° C. in 5% CO2. After the overnight incubation, the mixture of uninfected and VZV-infected HFF infected cells are then harvested and added to each well of 96-well plates (3.5×10^4 cells in 100 μl DMEM supplemented with 2% FBS) which contain test compound or the reference standard drug control (in 100 μl DMEM supplemented with 2% FBS per well). These cells are incubated for three days at 37° C. in 5% CO2, then fixed for ELISA assay. The primary antibody is murine anti-VZV glycoprotein II monoclonal antibody (Applied Biosystems, Inc. #13-145-100) and the secondary antibody is goat anti-mouse IgG linked to β-galactosidase. Thus the extent of viral replication is determined by assessing β-galactosidase activity by quantifying the generation of the 4-methyl umbelliferone fluorescent cleavage product after addition of the methyl umbelliferyl-β-D-galactoside (Sigma #M1633) substrate on a microfluorimeter (365 nm for excitation and 450 nm for emission). Antiviral activity (IC50) of the test compound is determined by comparing the flourescence obtained in absence of compound to that obtained in the presence of compound.

Row | Compound | IC50 (HCMV wild-type) | IC50 (HSV-1) | IC50 (VZV strain Ellen) | inhibition at 10 µg/mL (VZV strain Ellen) | IC50 Ug/ml HCMV (HCMV wild-type) | IC50 Ug/ml HSV (HSV-1) | % inhibition 10 ug/ml VZV (VZV strain Ellen; 10 ug/ml) | IC50 Ug/ml VZV (VZV strain Ellen)
1 | CCN(CC)c1ccc(NC(=S)Nc2ccc(NC(C)=O)cc2)cc1Cl [Example 202, N-{4-[3-(3-Chloro-4-diethylamino-phenyl)-thioureido]-phenyl}-acetamide] | > 10 µg/mL | 3 µg/mL (≈ 7.67 µM) | > 10 µg/mL | 18% |  |  |  | 
2 | CC(=O)Nc1ccc(NC(=S)Nc2ccc(N(C)C3CCN(Cc4ccccc4)C3)c(Cl)c2)cc1 (stereo not drawn) [Example 843, N-[4-(3-{4-[(1-Benzyl-pyrrolidin-3-yl)-methyl-amino]-3-chloro-phenyl}-thioureido)-phenyl]-acetamide] | 0.7 µg/mL (≈ 1.38 µM) | 5 µg/mL (≈ 9.84 µM) | > 10 µg/mL | 50% |  |  |  | 
3 | CCCCOc1cc(OC)c(NC(=S)Nc2ccc(NC(C)=O)cc2)cc1Cl [Example 834, N-{4-[3-(4-Butoxy-5-chloro-2-methoxy-phenyl)-thioureido]-phenyl}-acetamide] | > 10 µg/mL | 10 µg/mL (≈ 23.7 µM) | 15 µg/mL (≈ 35.5 µM) | 93% |  |  |  | 
4 | CC(=O)Nc1ccc(NC(=S)Nc2ccc(N(C)C3CCN(C)C3)c(Cl)c2)cc1 (stereo not drawn) [Example 845, N-[4-(3-{3-Chloro-4-[methyl-(1-methyl-pyrrolidin-3-yl)-amino]-phenyl}-thioureido)-phenyl]-acetamide] | 1 µg/mL (≈ 2.31 µM) | 20 µg/mL (≈ 46.3 µM) | > 10 µg/mL | 25% |  |  |  | 
5 | CC(=O)Nc1ccc(NC(=S)Nc2cc(Cl)cc(Cl)c2)cc1 [Example 933, N-{4-[3-(3,5-Dichloro-phenyl)-thioureido]-phenyl}-acetamide] | 1.2 µg/mL (≈ 3.39 µM) | > 10 µg/mL | > 10 µg/mL | 21% |  |  |  | 
6 | COc1cc(OC)c(NC(=S)Nc2ccc(NC(C)=O)c3ccccc23)cc1Cl [Example 329, N-{4-[3-(5-Chloro-2,4-dimethoxy-phenyl)-thioureido]-naphthalen-1-yl}-acetamide] | > 10 µg/mL | 4 µg/mL (≈ 9.3 µM) | > 10 µg/mL | 38% |  |  |  | 
7 | CC(=O)Nc1ccc(NC(=S)Nc2ccc(N(C)C)c(Cl)c2)cc1 [Example 240, N-{4-[3-(3-Chloro-4-dimethylamino-phenyl)-thioureido]-phenyl}-acetamide] | 1.5 µg/mL (≈ 4.13 µM) | > 50 µg/mL | > 10 µg/mL | 5% |  |  |  | 
8 | CC(=O)Nc1ccc(NC(=S)Nc2ccc(N(CCO)CCO)c(Cl)c2)cc1 [Example 905, N-[4-(3-{4-[Bis-(2-hydroxy-ethyl)-amino]-3-chloro-phenyl}-thioureido)-phenyl]-acetamide] | > 50 µg/mL | > 50 µg/mL | > 10 µg/mL | 36% |  |  |  | 
9 | COc1cc(OCC#N)c(Cl)cc1NC(=S)Nc1ccc(NC(C)=O)cc1 [Example 212, N-(4-{3-[5-Chloro-2-methoxy-4-(2-nitrilo-ethoxy)-phenyl]-thioureido}-phenyl)-acetamide] | 20 µg/mL (≈ 49.4 µM) | > 50 µg/mL | > 10 µg/mL | 23% |  |  |  | 
10 | CC(=O)Nc1ccc(NC(=S)Nc2cc(Cl)c(OCC#N)c(Cl)c2)cc1 [Example 886, N-(4-{3-[3,5-Dichloro-4-(2-nitrilo-ethoxy)-phenyl]-thioureido}-phenyl)-acetamide] | 10 µg/mL (≈ 24.4 µM) | 25 µg/mL (≈ 61.1 µM) | > 15 µg/mL | 50% |  |  |  | 
11 | COc1cc(N2CCCCC2)c(NC(=S)Nc2ccc(NC(C)=O)cc2)cc1Cl [Example 229, N-{4-[3-(5-Chloro-4-methoxy-2-piperidin-1-yl-phenyl)-thioureido]-phenyl}-acetamide] | 7 µg/mL (≈ 16.2 µM) | 15 µg/mL (≈ 34.6 µM) | > 10 µg/mL | 35% |  |  |  | 
12 | COc1cc(OC)c(NC(=S)Nc2ccc(NC(C)=O)nc2)cc1Cl [Example 314, N-{5-[3-(5-Chloro-2,4-dimethoxy-phenyl)-thioureido]-pyridin-2-yl}-acetamide] | 30 µg/mL (≈ 78.8 µM) | 2 µg/mL (≈ 5.25 µM) | > 10 µg/mL | 34% |  |  |  | 
13 | CC(=O)Nc1ccc(NC(=S)Nc2ccc(N(C)c3ccccc3)c(Cl)c2)cc1 [Example 842, N-(4-{3-[3-Chloro-4-(methyl-phenyl-amino)-phenyl]-thioureido}-phenyl)-acetamide] | 1.5 µg/mL (≈ 3.53 µM) | > 10 µg/mL | > 10 µg/mL | 33% |  |  |  | 
14 | CC(=O)Nc1ccc(NC(=S)Nc2ccc(OC3CCN(C)CC3)c(Cl)c2)cc1 [Example 335, N-(4-{3-[3-Chloro-4-(1-methyl-piperidin-4-yloxy)-phenyl]-thioureido}-phenyl)-acetamide] | 30 µg/mL (≈ 69.3 µM) | 30 µg/mL (≈ 69.3 µM) | > 10 µg/mL | 8% |  |  |  | 
15 | CC(=O)Nc1ccc(NC(=S)Nc2ccc(OCCO)c(Cl)c2)cc1 [Example 265, N-(4-{3-[3-Chloro-4-(2-hydroxy-ethoxy)-phenyl]-thioureido}-phenyl)-acetamide] | > 50 µg/mL | > 50 µg/mL | > 10 µg/mL | 20% |  |  |  | 
16 | COc1cc(OC)c(NC(=S)Nc2ccc(NC(C)=O)c(C(=O)c3ccccc3)c2)cc1Cl [Example 292, N-{2-Benzoyl-4-[3-(5-chloro-2,4-dimethoxy-phenyl)-thioureido]-phenyl}-acetamide] | > 10 µg/mL | > 50 µg/mL | 13 µg/mL (≈ 26.9 µM) | 70% |  |  |  | 
17 | COc1cc(OC)c(NC(=S)Nc2cccc(NC(C)=O)c2)cc1Cl [Example 100, N-{3-[3-(5-Chloro-2,4-dimethoxy-phenyl)-thioureido]-phenyl}-acetamide] | > 50 µg/mL | 40 µg/mL (≈ 105 µM) | > 10 µg/mL | 19% |  |  |  | 
18 | CC(=O)Nc1ccc(NC(=S)Nc2cc(Cl)c(O)c(Cl)c2C)cc1 [Example 129, N-{4-[3-(3,5-Dichloro-4-hydroxy-2-methyl-phenyl)-thioureido]-phenyl}-acetamide] | > 50 µg/mL | > 50 µg/mL | > 10 µg/mL | 29% |  |  |  | 
19 | CC(=O)Nc1ccc(NC(=S)Nc2ccc(NCCCN(C)C)c(Cl)c2)cc1 [Example 318, N-(4-{3-[3-Chloro-4-(3-dimethylamino-propylamino)-phenyl]-thioureido}-phenyl)-acetamide] | > 50 µg/mL | > 50 µg/mL | > 10 µg/mL | 26% |  |  |  | 
20 | CC(=O)Nc1ccc(NC(=S)Nc2ccc(NCc3ccccc3)c(Cl)c2)cc1 [Example 241, N-{4-[3-(4-Benzylamino-3-chloro-phenyl)-thioureido]-phenyl}-acetamide] | 2 µg/mL (≈ 4.71 µM) | 10 µg/mL (≈ 23.5 µM) | > 10 µg/mL | 24% |  |  |  | 
21 | COc1c(Br)cc(NC(=S)Nc2ccc(NC(C)=O)cc2)c(OC)c1Br [Example 894, N-{4-[3-(3,5-Dibromo-2,4-dimethoxy-phenyl)-thioureido]-phenyl}-acetamide] | 7 µg/mL (≈ 13.9 µM) | 12 µg/mL (≈ 23.8 µM) | > 10 µg/mL | 56% |  |  |  | 
22 | COc1cc(OC)c(NC(=S)Nc2ccc(NC(C)=O)c(C#N)c2)cc1Cl [Example 259, N-{4-[3-(5-Chloro-2,4-dimethoxy-phenyl)-thioureido]-2-cyano-phenyl}-acetamide] | > 50 µg/mL | > 50 µg/mL | > 10 µg/mL | 28% |  |  |  | 
23 | N-{4-[3-(5-Chloro-2,4-dimethoxy-phenyl)-thioureido]-3-methoxy-phenyl}-acetamide [Example 388] |  |  |  |  | >10 Ug/ml | 0.6 Ug/ml | 52% | >10 Ug/ml
24 | CC(=O)Nc1ccc(NC(=S)Nc2cc(Cl)c(OCc3ccccc3)c(Cl)c2)cc1 [Example 178, N-{4-[3-(4-Benzyloxy-3,5-dichloro-phenyl)-thioureido]-phenyl}-acetamide] | > 10 µg/mL | > 50 µg/mL | > 10 µg/mL | 32% |  |  |  | 
